# Tests used:
# COX-2 = biological target: T1, COX-2 (Homo sapiens, UniProt P35354); experiment: In vitro COX-2 inhibition, colorimetric screening assay kit; details: for (SI) in vitro COX-2 selectivity index: COX-1 IC50/COX-2 IC50; for HillSlope (best-fit value), COX-2 inhibition / LogIC50 (best-fit value), COX-2 inhibition: supplementary dose-response curve
# T1 sequence (P35354 18-604): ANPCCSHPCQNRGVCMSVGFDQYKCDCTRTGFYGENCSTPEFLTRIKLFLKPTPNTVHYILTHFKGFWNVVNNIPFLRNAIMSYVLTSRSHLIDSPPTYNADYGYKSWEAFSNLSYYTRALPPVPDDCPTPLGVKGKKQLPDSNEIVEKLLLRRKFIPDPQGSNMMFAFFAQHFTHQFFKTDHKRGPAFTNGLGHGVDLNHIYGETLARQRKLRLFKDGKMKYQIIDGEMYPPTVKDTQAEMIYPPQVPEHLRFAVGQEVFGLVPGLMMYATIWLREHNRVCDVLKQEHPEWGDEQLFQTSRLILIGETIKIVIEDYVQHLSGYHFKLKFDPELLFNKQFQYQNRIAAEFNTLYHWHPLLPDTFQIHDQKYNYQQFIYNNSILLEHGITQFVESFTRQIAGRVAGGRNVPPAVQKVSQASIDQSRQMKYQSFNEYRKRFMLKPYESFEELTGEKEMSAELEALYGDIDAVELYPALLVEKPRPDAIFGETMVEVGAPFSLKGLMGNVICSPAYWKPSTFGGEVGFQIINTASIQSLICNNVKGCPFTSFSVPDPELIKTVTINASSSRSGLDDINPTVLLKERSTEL
# Experimental: (§1) This assay examined the inhibitory potency of the target structures towardboth COX isoforms via colorimetric screening assay kit (Cayman Chemical, MI, United States) based on the directions provided by the manufacturer. ELISA reader Thermo Scientific Multiskan® EX (Thermo scientific, United States) was used. […] Serial dilutions of CLX, as a reference standard, and tested compounds at concentrations of 1000, 300, 100, 30, 10, 3, 1, and 0.30 nM were used in the assay. IC50 of the tested compounds were determined using three different experiments. The selectivity (SI) of each ompound was measured using the COX-2/COX-1 ratio, which compares the IC50 of COX-2 and COX-1.
# COX-1 = biological target: T2, COX-1 (Ovis aries, UniProt P05979); experiment: In vitro COX-1 inhibition, colorimetric screening assay kit; details: for HillSlope (best-fit value), COX-1 inhibition / LogIC50 (best-fit value), COX-1 inhibition: supplementary dose-response curve
# T2 sequence (P05979 25-600): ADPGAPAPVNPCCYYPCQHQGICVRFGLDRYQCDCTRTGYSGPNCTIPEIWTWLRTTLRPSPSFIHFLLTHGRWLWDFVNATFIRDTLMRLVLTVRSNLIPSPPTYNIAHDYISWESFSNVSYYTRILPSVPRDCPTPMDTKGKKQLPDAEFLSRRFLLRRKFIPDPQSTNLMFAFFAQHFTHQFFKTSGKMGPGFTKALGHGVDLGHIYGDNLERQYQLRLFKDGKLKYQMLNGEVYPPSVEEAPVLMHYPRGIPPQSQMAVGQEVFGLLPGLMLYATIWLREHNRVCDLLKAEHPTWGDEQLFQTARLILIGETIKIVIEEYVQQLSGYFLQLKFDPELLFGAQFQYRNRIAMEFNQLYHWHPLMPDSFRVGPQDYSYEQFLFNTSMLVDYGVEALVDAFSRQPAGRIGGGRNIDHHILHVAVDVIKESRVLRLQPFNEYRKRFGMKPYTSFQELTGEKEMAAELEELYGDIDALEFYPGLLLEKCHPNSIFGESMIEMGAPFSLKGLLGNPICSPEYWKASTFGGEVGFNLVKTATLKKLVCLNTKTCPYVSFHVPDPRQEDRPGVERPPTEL
# Experimental: as §1
Compound,melting point,IC50 (COX-2),(SI) in vitro COX-2 selectivity index (COX-2),"HillSlope (best-fit value), COX-2 inhibition (COX-2)","LogIC50 (best-fit value), COX-2 inhibition (COX-2)",IC50 (COX-1),"HillSlope (best-fit value), COX-1 inhibition (COX-1)","LogIC50 (best-fit value), COX-1 inhibition (COX-1)"
"COc1ccc(NC(=O)Nc2nnc(SCC(=O)Nc3c(C)n(C)n(-c4ccccc4)c3=O)s2)cc1 [6c, N-(1,5-Dimethyl-3-oxo-2-phenyl-2,3-dihydro-1H-pyrazol-4-yl)-2-((5–(3-(4-methoxyphenyl)ureido)-1,3,4-thiadiazol-2-yl)thio)acetamide]",250 to 252 °C,86.1 ± 2.26 nM,3.28,-0.3558,1.935 Log (nM),282.1 ± 2.34 nM,-0.2958,2.450 Log (nM)
"Cc1c(NC(=O)CSc2nnc(-c3ccc([N+](=O)[O-])cc3)o2)c(=O)n(-c2ccccc2)n1C [4d, N-(1,5-Dimethyl-3-oxo-2-phenyl-2,3-dihydro-1H-pyrazol-4-yl)-2-((5–(4-nitrophenyl)-1,3,4-oxadiazol-2-yl)thio)acetamide]",214 to 216 °C,65.5 ± 2.23 nM,0.77,-0.3340,1.817 Log (nM),50.8 ± 2.18 nM,-0.3754,1.705 Log (nM)
"Cc1c(NC(=O)CSc2nc(-c3ccc(Cl)cc3)c(C#N)c(=O)[nH]2)c(=O)n(-c2ccccc2)n1C [8b, 2-((4–(4-Chlorophenyl)-5-cyano-6-oxo-1,6-dihydropyrimidin-2-yl)thio)-N-(1,5-dimethyl-3-oxo-2-phenyl-2,3-dihydro-1H-pyrazol-4-yl)acetamide]",239 to 241 °C,120 ± 2.06 nM,1.74,-0.3650,2.079 Log (nM),209 ± 2.21 nM,-0.3071,2.320 Log (nM)
"Cc1c(NC(=O)CSc2nnc(NC(=O)Nc3ccccc3)s2)c(=O)n(-c2ccccc2)n1C [6a, N-(1,5-Dimethyl-3-oxo-2-phenyl-2,3-dihydro-1H-pyrazol-4-yl)-2-((5–(3-phenylureido)-1,3,4-thiadiazol-2-yl)thio)acetamide]",254 to 256 °C,155 ± 2.07 nM,0.85,-0.3826,2.190 Log (nM),132 ± 2.36 nM,-0.3215,2.119 Log (nM)
"Cc1c(NC(=O)CSc2nc(-c3ccc(Br)cc3)c(C#N)c(=O)[nH]2)c(=O)n(-c2ccccc2)n1C [8c, 2-((4–(4-Bromophenyl)-5-cyano-6-oxo-1,6-dihydropyrimidin-2-yl)thio)-N-(1,5-dimethyl-3-oxo-2-phenyl-2,3-dihydro-1H-pyrazol-4-yl)acetamide]",243 to 245 °C,130 ± 2.1 nM,1.26,-0.3953,2.113 Log (nM),164 ± 2.39 nM,-0.2705,2.214 Log (nM)
"Cc1ccc(NC(=O)Nc2nnc(SCC(=O)Nc3c(C)n(C)n(-c4ccccc4)c3=O)s2)cc1 [6b, N-(1,5-Dimethyl-3-oxo-2-phenyl-2,3-dihydro-1H-pyrazol-4-yl)-2-((5–(3-(p-tolyl)ureido)-1,3,4-thiadiazol-2-yl)thio)acetamide]",253 to 255 °C,104 ± 2.25 nM,0.79,-0.2866,2.016 Log (nM),82.3 ± 2.28 nM,-0.3398,1.915 Log (nM)
"Cc1c(NC(=O)CSc2nnc(NC(=O)Nc3ccc(Cl)cc3)s2)c(=O)n(-c2ccccc2)n1C [6d, 2-((5–(3-(4-Chlorophenyl)ureido)-1,3,4-thiadiazol-2-yl)thio)-N-(1,5-dimethyl-3-oxo-2-phenyl-2,3-dihydro-1H-pyrazol-4-yl)acetamide]",248 to 250 °C,169 ± 2.34 nM,0.63,-0.3273,2.228 Log (nM),106 ± 2.16 nM,-0.3655,2.025 Log (nM)
"Cc1ccc(-c2nc(SCC(=O)Nc3c(C)n(C)n(-c4ccccc4)c3=O)[nH]c(=O)c2C#N)cc1 [8a, 2-((5-Cyano-6-oxo-4-(p-tolyl)-1,6-dihydropyrimidin-2-yl)thio)-N-(1,5-dimethyl-3-oxo-2-phenyl-2,3-dihydro-1H-pyrazol-4-yl)acetamide]",> 300 °C,88.6 ± 2.19 nM,1.57,-0.3794,1.948 Log (nM),139 ± 2.31 nM,-0.3685,2.142 Log (nM)
"COc1ccc(-c2nc(SCC(=O)Nc3c(C)n(C)n(-c4ccccc4)c3=O)[nH]c(=O)c2C#N)cc1 [8d, 2-((5-Cyano-4–(4-methoxyphenyl)-6-oxo-1,6-dihydropyrimidin-2-yl)thio)-N-(1,5-dimethyl-3-oxo-2-phenyl-2,3-dihydro-1H-pyrazol-4-yl)acetamide]",166 to 168 °C,68.7 ± 2.19 nM,1.33,-0.3543,1.837 Log (nM),91.6 ± 2.15 nM,-0.3099,1.962 Log (nM)
"Cc1ccc(-c2nnc(SCC(=O)Nc3c(C)n(C)n(-c4ccccc4)c3=O)o2)cc1 [4a, N-(1,5-Dimethyl-3-oxo-2-phenyl-2,3-dihydro-1H-pyrazol-4-yl)-2-((5-(p-tolyl)-1,3,4-oxadiazol-2-yl)thio)acetamide]",234 to 236 °C,86.9 ± 2.19 nM,2.05,-0.3184,1.939 Log (nM),178 ± 2.15 nM,-0.3744,2.252 Log (nM)

# — publication PMC9848286, “Design, synthesis, and biological investigation of oxadiazolyl, thiadiazolyl, and pyrimidinyl linked antipyrine derivatives as potential non-acidic anti-inflammatory agents” (Journal of Enzyme Inhibition and Medicinal Chemistry, 2023)
